Test results as given in paper PMC8136485, “Were Ancestral Proteins Less Specific?” (Molecular Biology and Evolution, 2021).
Ends that are not written are not given here. * marks the point of attachment. 5FAM = O=C1OC2(c3ccc(O)cc3Oc3cc(O)ccc32)c2ccc(C(=O)*)cc21

Tests used:
ancA5/A6 = test: Fluorescence polarization, direct titration of probe peptide with protein; format: binding; details: 0.03 μM probe, 0 to ≈200 μM protein, 2 mM CaCl2, then 5 mM EDTA added
Source text: (§1) To mimic the phage display experiment, we measured binding by displacement of a fluorescently labeled probe peptide. For our probe, we used the competitor peptide from the phage display experiment with the addition of an N-terminal 5-FAM fluorophore (fig. 3A). […] We could then measure fluorescence polarization of the probe peptide as a function of increasing concentrations of unlabeled peptide. A peptide that binds at the same site as the probe will displace the probe and thereby change the fluorescence polarization.
(§2) We fit the curve to a single-site binding model: (6) P([protein])∼ΔPmax[protein]/[protein]+KD,probe+P0 where P0 is the polarization of the peptide in the absence of protein, ΔPmax is the change in signal from unbound peptide to bound to the protein, and KD,probe is the probe dissociation constant. After recording the titration curve in the presence of CaCl2, we added 5 mM EDTA to all wells and remeasured the curve.
(§3) Fig S6: Binding of /f_luorescent probe peptide is calcium dependent. Panel show measured /f_luorescence anisotropy for the peptide 5FAM- GFDWR […] in the presence of […]
(§4) increasing protein concentration. Probe concentration was 0.03 uM. Proteins are hA5 (purple), hA6 (orange), ancA5/A6 (green), and human S100A9 (black). S100A9 is a negative control, because it is evolutionarily distant from hA5 and hA6 and would thus not be expec ted to bind to the probe […]

hA5 = test: as above; format: binding, human; details: 0.03 μM probe, 0 to ≈200 μM protein, 2 mM CaCl2, then 5 mM EDTA added
Source text: as §1, §2, §3, §4

hA6 = test: as above; format: binding, human; details: 0.03 μM probe, 0 to ≈200 μM protein, 2 mM CaCl2, then 5 mM EDTA added
Source text: as §1, §2, §3, §4

hA6 (human S100A6) [1] = target: T1, hA6 (human S100A6) (Homo sapiens, UniProt P06703); test: Fluorescence polarization, displacement of 5FAM probe peptide; format: binding; details: displacement of 5FAM-labelled probe, 50 mM TES, 100 mM NaCl, 0.01% Tween-20, pH 7.4, 2.4-4.2 µM protein with equal probe, technical triplicate, corrected for probe
T1 construct: His tag with TEV protease cleavage site (N, cleaved yes); made in house; host or cells: Rosetta E. coli (DE3) pLysS
Source text: as §1
(§5) We did the fluorescence polarization experiments in 50 mM TES, 100 mM NaCl, and 0.01% Tween-20, pH 7.4, thus matching the phage display experimental buffer. We ordered all nine test peptides and the probe peptide in milligram quantities at 95% purity (Genscript). For the probe peptide, we used “5FAM-[…],” where 5FAM indicates an N-terminally linked 5-carboxyfluorescein moiety. […] The only exception was […], which we dissolved in ddH2O .
(§6) We measured fluorescence anisotropy using a SpectraMax i3 plate reader (Molecular Devices) with 96-well black plates (Corning). Prior to reading each plate, we shook for 5 s and then acquired with 500 ms integration time. Prior to the set of experiments, we optimized detector height and calibrated the plate’s xy position to maximize signal. We then kept this calibration throughout the set of experiments. For each experiment, we recorded both vertical (vv) and horizontal (vh) emission channels and then converted to arbitrary polarization units by: (5) R=vv−Gvh/vv+2Gvh with G set to 1.0. Titrations were done by serial dilution through conditions on individual plates, followed by measurement of all wells. We did all measurements in technical triplicate. We used custom software to programmatically remove technical replicate outliers.
(§7) For our production experiments, we added increasing amounts of competitor peptide to wells with between 2.4 and 4.2 µM protein (monomer). Each well also contained probe peptide at the same concentration as the protein. We selected these concentrations to maximize the amount of signal change upon addition of competitor peptide KD,probe . We calculated the expected signal change by: (7) ΔPpredicted=ΔPmax×[MX]/[X]T where ΔPmax=0.135 (as determined by our initial fits to extract probe peptide KD,probe ), [X]T was the total probe concentration, and [MX] was the concentration of the probe/protein complex prior to adding competitor peptide. We calculated [MX] by: (8) [MX]=([X]T+[M]T+KD,probe)±([X]T+[M]T+KD,probe)^2−4[X]T[M]T/2 where [M]T was the total protein concentration.
(§8) Prior to fitting a binding model to each curve, we converted it from polarization to fractional saturation. We did so by first fitting the single-site binding model to the data to obtain an estimate of the initial polarization (P0) for the protein/peptide pair. We then subtracted this value of P0 to obtain a baseline-subtracted polarization. We then divided the baseline-subtracted polarization by ΔPpredicted , yielding a fractional saturation (θ).
(§9) We then fit a reduced form of the single-site binding model to the data: (9) θ=[protein]/[protein]+KD,apparent
(§10) Finally, we corrected the resulting KD,apparent to account for the effect of the competitor peptide ([Hulme and Trevethick 2010]): (10) KD,peptide=KD,apparent/1+[X]T*(1−δ/2)/KD,probe+δ/(1−δ) where [X]T is the total probe peptide concentration and δ=[MX]/[X]T .

hA5 (human S100A5) [2] = target: T2, hA5 (human S100A5) (Homo sapiens, UniProt P33763); test: as above; format: binding; details: displacement of 5FAM-labelled probe, 50 mM TES, 100 mM NaCl, 0.01% Tween-20, pH 7.4, 2.4-4.2 µM protein with equal probe, technical triplicate, corrected for probe
T2 construct: His tag with TEV protease cleavage site (N, cleaved yes); made in house; host or cells: Rosetta E. coli (DE3) pLysS
T2 sequence (P33763 1-92): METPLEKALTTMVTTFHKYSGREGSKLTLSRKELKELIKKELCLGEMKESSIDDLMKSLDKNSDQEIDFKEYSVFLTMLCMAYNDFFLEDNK
Source text: as §1, §5, §6, §7, §8, §9, §10

[3] = tested on: ancA5/A6 (reconstructed last common ancestor of S100A5 and S100A6); test: Quantitative phage display enrichment with/without competitor peptide; format: binding; details: ancA5/A6 (aA5A6 in csv); E=−ln(cnon-competitor/ccompetitor); panning in 2 mM Ca2+, elution 5 mM EDTA; 20 μM competitor; E≤−1.5 taken as binder
Source text: (§11) We next set out to measure the binding of S100 proteins to this library of random 12-mer peptides. The S100 peptide-binding interface is only exposed upon Ca^2+ -binding (fig. 1A); therefore, we performed phage panning experiments in the presence of saturating Ca^2+ and then eluted the bound phage using saturating ethylenediaminetetraacetic acid (EDTA) (fig. 2B). After this panning step, the population of enriched phage particles will be a mixture of those that bind at the site of interest and those that bind adventitiously (blue and purple phage, fig. 2B) ([Sidhu et al. 2000]; [Willats 2002]). To separate these populations, we repeated the panning experiment in the presence of a saturating concentration of competitor peptide known to bind at the site of interest ([…], fig. 2C) ([Wheeler et al. 2018]). This should lower the enrichment of peptides that bind at the site of interest, while allowing any adventitious interactions to remain. By comparing the competitor and noncompetitor pools, we can distinguish between specific and adventitious binders.
(§12) After panning, we sequenced the resulting phage pools using Illumina sequencing. […] We estimated changes in the frequencies of peptides between samples with and without competitor peptide (supplementary fig. S3, Supplementary Material online). For each peptide, we determined E: (1) E=−ln(cnon-competitor/ccompetitor) where ccompetitor and cnon-competitor are the sequence counts for the peptide recovered from parallel Ca^2+/EDTA panning experiments done with and without competitor peptides.
(§13) If E < 0, the competitor peptide interferes with the Ca^2+ -dependent enrichment of the peptide. […] If E > 0, the competitor peptide improves Ca^2+ -dependent enrichment of the phage peptide. This could occur if the phage peptide binds more favorably to the S100/competitor peptide complex than the S100 alone. […]
(§14) Phage display experiments were performed using the PhD-12 peptide phage display kit (NEB). […] Eluates were tittered to quantify eluted phage as follows. […]

hA6 (human S100A6) [4] = target: T1, hA6 (human S100A6); test: as above; format: binding; details: E=−ln(cnon-competitor/ccompetitor), panning in 2 mM Ca2+, elution 5 mM EDTA, 20 μM competitor, E≤−1.5 taken as binder
Source text: as §11, §12, §13, §14

hA5 (human S100A5) [5] = target: T2, hA5 (human S100A5); test: as above; format: binding; details: E=−ln(cnon-competitor/ccompetitor), panning in 2 mM Ca2+, elution 5 mM EDTA, 20 μM competitor, E≤−1.5 taken as binder
Source text: as §11, §12, §13, §14

Substance | Kd (hA6 (human S100A6) [1]) | Kd (hA5 (human S100A5) [2]) | also measured
5FAM-GFDWRWGMEALTGGGSAE [probe] | – | – | calcium dependence of probe binding (ancA5/A6): bound in a calcium-dependent manner; calcium dependence of probe binding (hA5): bound in a calcium-dependent manner; calcium dependence of probe binding (hA6): bound in a calcium-dependent manner
EGLDLMSILELIGGSAE [phage_ctl_0] | 48.7 µM | 47.2 µM | –
EQPLLKYLQLMRGGSAE [phage_ctl_5] | – | 85.8 µM | –
GEVTNYGYLVDQGGSAE [phage_ctl_7] | 42.7 µM | – | –
GWLEQYFSRTADGGSAE [phage_ctl_2] | 14.6 µM | 18.6 µM | –
HVQWRDRNVIEWGGSAE [phage_ctl_6] | – | 123 µM | –
RHGFLQDILFKLGGSAE [phage_ctl_1] | 61.7 µM | 36.4 µM | –
SGPSDWLHKGVLGGSAE [phage_ctl_9, phage display 12-mer peptide with C-terminal flank, ordered as synthetic test peptide] | – | – | E (enrichment) [3]: 5.052; E (enrichment) (hA6 (human S100A6) [4]): 0.5131; E (enrichment) (hA5 (human S100A5) [5]): 0.5882
SRQTTSTHEWVVGGSAE [phage_ctl_4] | 102 µM | – | Kd (KD,peptide) (hA5 (human S100A5) [2]): No model could be reliably fit
SSSTYPGFRQSTGGSAE [phage_ctl_8] | 202 µM | – | –
